Experimental data reported in patent US10092590B2, “Composition of HMB and ATP and methods of use” (Metabolic Technologies, Inc., priority 2012, dated 2018).

Experiments:
[1] = Perceived Recovery Status (PRS) scale; format: in vivo, human; conditions: over the 12-week study
Experimental: (§1) Prior to the study, participants were randomly assigned to receive either 3 g per day of HMB Free Acid (HMB) (combined with food-grade orange flavors and sweeteners), 400 mg per day of ATP (PEAK ATP®; TSI, Inc.), a combination of both 3 g of HMB and 400 mg per day of ATP, or a placebo (food-grade orange flavors and sweeteners) divided equally into three servings daily with the first serving given 30 minutes prior to exercise and the remaining two servings daily with the mid-day and evening meals. On the non-training days participants were instructed to consume one serving with each of three separate meals. The supplementation was continued daily throughout the training and testing protocols. Each serving was formulated with 1 gram of HMB free acid to account for fill and emptying variation and achieve a minimum effective dosage of 0.800 grams. This dosage would be equivalent to a 1 gram Ca-HMB dosage.
Perceived Recovery Status (PRS) scale was measured at weeks 0, 4, 8, 9, 10, and 12 to assess subjective recovery during the training phases. The PRS scale consists of values between 0-10, with 0-2 being very poorly recovered and with anticipated declines in performance, 4-6 being low to moderately recovered and expected similar performance, and 8-10 representing high perceived recovery with expected increases in performance.

cortisol = test: Serum cortisol, ELISA; format: in vivo, human; conditions: week 9 (overreaching); mean ± SEM
Experimental: as §1, with “dosage. […]” for “dosage.”
(§2) Samples were thawed one time and analyzed in duplicate for each analyte. […] All hormones were measured in the same assay on the same day to avoid compounded interassay variance. […] Serum creatine kinase (CK) was measured using colorimetric procedures at 340 nm (Diagnostics Chemicals, Oxford, Conn.). Twenty-four hour urine collections were made and 3-methylhistine was determined by previously described methods (Rathmacher et al 1992 and Wilson et al, 2013).

[2] = Skeletal muscle hypertrophy, ultrasonography quadriceps muscle thickness (VL and VI); format: in vivo, human; conditions: week 8 of study
total testosterone = test: Serum total testosterone, ELISA; format: in vivo, human; conditions: week 9 (overreaching); mean ± SEM
Experimental: as §1, with “dosage. […]” for “dosage.”
as §2

creatine kinase (CK) = test: Serum creatine kinase (muscle damage), colorimetric; format: in vivo, human; conditions: week 9 (overreaching); mean ± SEM
Experimental: as §1, with “dosage. […]” for “dosage.”
as §2

[3] = Body composition by dual x-ray absorptiometry (weight, lean body mass, fat); format: in vivo, human
[4] = tested on: skeletal muscle protein synthesis; conditions: acute ingestion of 2.4 grams; cited from earlier work

Structure (SMILES) | effect on PRS [1] | Cortisol (cortisol) [µg/dL] | Quad (quadriceps muscle thickness) [2] [mm] | Total Testosterone (total testosterone) [ng/dL] | CK (creatine kinase (CK)) [IU/L] | DXA LBM ([3]; week 4 of study) [kg] | DXA Fat ([3]; week 8 of study) [%] | DXA LBM ([3]; week 8 of study) [kg] | decrease in protein breakdown [4] [%] | increase in skeletal muscle protein synthesis [4]
Nc1ncnc2c1ncn2[C@@H]1O[C@H](COP(=O)(O)OP(=O)(O)OP(=O)(O)O)[C@@H](O)[C@H]1O [ATP, Adenosine-5′-triphosphate] | no main effect |  |  |  |  |  |  |  |  | 
CC(C)(O)CC(=O)O [HMB-FA, β-hydroxy-β-methylbutyric acid] |  | 19.6 ± 1.1 | 56.0 ± 1.4 | 752 ± 61 | 288 ± 18 | 69.2 ± 2.7 | 15.9 ± 1.5 | 71.3 ± 2.7 | −56 | +70%
